What was measured:
HDAC-1 = HDAC-1 (Homo sapiens, UniProt Q13547); experiment: HDAC-1 inhibitory activity assay (fluorophore/quencher peptide substrate); assay type: biochemical; conditions: enzyme/compound pre-incubated 2 hours at room temperature; reaction about 45 minutes
Method: (§1) HDAC inhibitory activity of the compound of Example 1 was measured by an assay in which HDAC-1 or -3 were used as a target molecule. The test compound was suspended in and titrated in DMSO. It was then spotted into a 384-well test plate. The enzyme, HDAC-1 or -3, was diluted in assay buffer containing 25 mM Tris-HCl (pH 8.0), 137 mM NaCl, 2.7 mM KCl, and 0.01% Tween-20 and added to the pre-spotted compound. The enzyme/compound mix was incubated at room temperature for 2 hours. The peptide substrate containing a fluorophore/quencher pair was diluted in the same assay buffer and added to the compound/enzyme mix initiating the reaction. The reaction incubated at room temperature for about 45 minutes. A concentrated developer solution was diluted in the assay buffer, and added to the reaction. The reaction was incubated at room temperature for about 15 minutes and relative fluorescence was read on an instrument reader.

HDAC-3 = HDAC-3 (Homo sapiens, UniProt O15379); experiment: HDAC-3 inhibitory activity assay (fluorophore/quencher peptide substrate); assay type: biochemical; conditions: enzyme/compound pre-incubated 2 hours at room temperature; reaction about 45 minutes
Method: as §1

HDAC-1, sequence (Q13547 whole entry, species assumed): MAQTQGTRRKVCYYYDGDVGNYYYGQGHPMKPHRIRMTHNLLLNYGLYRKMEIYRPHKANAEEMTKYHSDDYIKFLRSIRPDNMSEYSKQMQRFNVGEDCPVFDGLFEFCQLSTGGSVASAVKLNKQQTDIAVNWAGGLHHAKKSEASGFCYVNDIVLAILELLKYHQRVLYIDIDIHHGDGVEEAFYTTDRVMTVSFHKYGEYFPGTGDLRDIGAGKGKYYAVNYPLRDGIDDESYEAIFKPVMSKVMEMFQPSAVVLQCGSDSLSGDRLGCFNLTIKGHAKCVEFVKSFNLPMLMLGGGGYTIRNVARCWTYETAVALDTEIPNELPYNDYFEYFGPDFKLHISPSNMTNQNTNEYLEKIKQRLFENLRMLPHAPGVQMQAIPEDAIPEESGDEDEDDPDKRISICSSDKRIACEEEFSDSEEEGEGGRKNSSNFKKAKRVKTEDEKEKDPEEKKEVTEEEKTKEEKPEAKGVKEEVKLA
HDAC-3, sequence (O15379 whole entry, species assumed): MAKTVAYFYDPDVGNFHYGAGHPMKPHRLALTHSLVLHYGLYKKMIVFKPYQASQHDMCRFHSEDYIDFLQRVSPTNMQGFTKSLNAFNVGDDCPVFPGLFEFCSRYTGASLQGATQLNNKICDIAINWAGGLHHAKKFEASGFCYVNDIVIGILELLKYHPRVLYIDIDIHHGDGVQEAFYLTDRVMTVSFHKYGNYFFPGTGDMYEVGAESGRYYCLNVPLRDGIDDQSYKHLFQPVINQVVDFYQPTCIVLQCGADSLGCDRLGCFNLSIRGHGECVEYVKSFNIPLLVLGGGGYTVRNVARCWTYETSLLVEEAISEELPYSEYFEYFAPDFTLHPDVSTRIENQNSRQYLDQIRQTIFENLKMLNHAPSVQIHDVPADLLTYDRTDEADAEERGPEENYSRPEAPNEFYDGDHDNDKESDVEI
HDAC-3, sequence (Q9Y618 395-489 partner limits assumed, species assumed): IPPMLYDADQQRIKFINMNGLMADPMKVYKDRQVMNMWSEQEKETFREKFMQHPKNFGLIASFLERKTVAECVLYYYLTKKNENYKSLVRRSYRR

| SMILES | IC50 (HDAC-1) | IC50 (HDAC-3) |
| --- | --- | --- |
| CC(C)(C)OC(=O)NC1(C(=O)Nc2ccc(C(=O)Nc3ccccc3N)cc2)CCCCC1 [Example 1, tert-Butyl-1-((4-((2-aminophenyl)carbamoyl)phenyl)carbamoyl)cyclohexyl carbamate] | 0.0447 µM | 0.378 µM |
| CC(C)(C)OC(=O)NC1(C(=O)Nc2ccc(C(=O)Nc3ccccc3N)cc2)CC1 [Example 2, tert-Butyl-1-((4-((2-aminophenyl)carbamoyl)phenyl)carbamoyl)cyclopropyl carbamate] | 0.0628 µM | 0.378 µM |
| CC(C)(C)OC(=O)NC1(C(=O)Nc2ccc(C(=O)Nc3ccccc3N)cc2)CCCC1 [Example 3, tert-Butyl-1((4-((2-aminophenyl)carbamoyl)phenyl)carbamoyl)cyclopentylcarbamate] | 0.0609 µM | 0.482 µM |
| Nc1ccc(-c2cccs2)cc1NC(=O)c1ccc(NC(=O)C2(NC(=O)OCc3ccccc3)CC2)c(F)c1 [Example 8, Benzyl-1-((4-((2-amino-5-(thiophen-2-yl)phenyl)carbamoyl)-2-fluorophenyl)carbamoyl)cyclopropylcarbamate] | 0.0056 µM | > 10 µM |
| Nc1ccc(-c2ccc(F)cc2)cc1NC(=O)c1ccc(NC(=O)C2(N)CC2)cc1 [Example 10, N-(4-Amino-4′-fluorobiphenyl-3-yl)-4-(1-aminocyclopropanecarboxamido)benzamide] | 0.0052 µM | > 10 µM |
| CC(C)(C)NC(=O)NC1(C(=O)Nc2ccc(C(=O)Nc3cc(-c4ccc(F)cc4)ccc3N)cc2)CC1 [Example 11, N-(4-amino-4′-fluorobiphenyl-3-yl)-4-(1-(3-tert-butylureido)cyclopropanecarboxamido)benzamide] | 0.009 µM | > 10 µM |

Continued, values first:

| IC50 (HDAC-1) | IC50 (HDAC-3) | SMILES |
| --- | --- | --- |
| 0.025 µM | 0.171 µM | Nc1ccccc1NC(=O)c1ccc(NC(=O)C2(NC(=O)OCc3ccccc3)CC2)cc1 [Example 4, Benzyl-1-((4-((2-aminophenyl)carbamoyl)phenyl)carbamoyl)cyclopropyl carbamate] |
| 0.0034 µM | > 10 µM | Nc1ccc(-c2cccs2)cc1NC(=O)c1ccc(NC(=O)C2(NC(=O)OCc3ccccc3)CC2)cc1 [Example 5, Benzyl-1-((4-((2-amino-5-(thiophen-2-yl)phenyl)carbamoyl)phenyl)carbamoyl)cyclopropyl carbamate] |
| 0.0074 µM | > 10 µM | Nc1ccc(-c2ccc(F)cc2)cc1NC(=O)c1ccc(NC(=O)C2(NC(=O)OCc3ccccc3)CC2)cc1 [Example 6, Benzyl-1-((4-((2-amino-5-(4-fluorophenyl)phenyl)carbamoyl)phenyl)carbamoyl)cyclopropyl carbamate] |
| 0.0267 µM | > 10 µM | Nc1ccc(-c2ccc(Cl)s2)cc1NC(=O)c1ccc(NC(=O)C2(NC(=O)OCc3ccccc3)CC2)cc1 [Example 7, Benzyl-1-((4-((2-amino-5-(5-chlorothiophen-2-yl)phenyl)carbamoyl)phenyl)carbamoyl)cyclopropylcarbamate] |
| 0.0082 µM | 7.51 µM | CN(C(=O)C1(NC(=O)OCc2ccccc2)CC1)c1ccc(C(=O)Nc2cc(-c3ccc(F)cc3)ccc2N)cc1 [Example 9, Benzyl-1-((4-((2-amino-5-(4-Fluorophenyl)phenyl)carbamoyl)phenyl)(methyl)carbamoyl)cyclopropylcarbamate] |

Source: US8283357B2, “Cycloalkylcarbamate benzamide aniline HDAC inhibitor compounds” (Gilead Sciences, Inc., priority 2009, dated 2012)
